Laboratory results as given in patent US12523664B2, “Sensor chip and methods thereof” (NATIONAL UNIVERSITY OF SINGAPORE, priority 2019, dated 2026).
Entries after “also recorded” stand apart in the source; their conditions may differ.

Target: amylogenic protein (Homo sapiens, UniProt P05067)
Test: Protein aggregation with or without inhibitor, aggregate size by dynamic light scattering
Assay type: biochemical
Conditions: 10 μM inhibitor added before 1 h incubation with agitation
Procedure: Aggregate size determination. Hydrodynamic diameter of amylogenic protein and BSA aggregates were determined by dynamic light scattering analysis (Zetasizer Nano ZSP, Malvern). 3×14 measurement runs were performed at 4° C. Z-average diameter and polydispersity were analyzed. For every measurement, the auto-correlation function and polydispersity index were monitored to ensure sample quality for size determination.
Protein aggregation. Lyophilized amylogenic protein was resuspended in NaOH (60 mM, 4° C.), sonicated, and pH adjusted to pH 7.4 in PBS. The protein was immediately filtered through a 0.2-μm membrane filter (Millipore) and the filtrate was used as the small initial aggregates. For preparation of the bigger aggregates, the protein was treated as described above and incubated with agitation for 1 h to induce further aggregation. […] Aggregate size determination was performed at the end of the incubation.

amylogenic protein, sequence (P05067 672-713 limits assumed): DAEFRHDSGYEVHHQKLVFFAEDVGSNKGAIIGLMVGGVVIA

CN(C)c1ccc2nc3ccc(=[N+](C)C)cc-3sc2c1 [inhibitor, methylene blue]
increase in size as a result of spontaneous protein aggregation: reduced spontaneous protein aggregation; also recorded: minimal
